# Source: EP4588921A1, “FREE BASE CRYSTAL FORM OF POLYCYCLIC COMPOUND OF NITROGEN-CONTAINING HETEROCYCLE, AND PREPARATION METHOD THEREFOR” (Jiangsu Hansoh Pharmaceutical Group Co., Ltd., priority 2022, dated 2024)
# Read-outs that look alike come from different tables or passages of the source.
# Experiments:
# [1] = Hygroscopicity experiment; assay type: physicochemical; conditions: at 80%RH
# Experimental: The hygroscopicity of the crystal form I and the crystal form II of compound 9 were investigated under different relative humidity to provide a basis for the storage of the compounds.
# The crystal form I and the crystal form II of compound 9 were placed in saturated water vapor at different relative humidities to allow the compound to reach a dynamic equilibrium with the water vapor, and the percentage of weight gain after moisture absorption of the compound after equilibrium was calculated.
# [2] = PK studies in animals of the free base crystal forms; assay type: in vivo; conditions: Sprague-Dawley (SD), rat, 30 mg/kg, 30MPK, 0.5%HPMC suspension, SD rats, plasma
# Experimental: The pharmacokinetic of the free base crystal form after a single intravenous administration was studied, and the bioavailability of the free base crystal form I and the free base crystal form II after oral administration were calculated.
# The free base crystal form I was suspended with 0.5% CMCC-Na aqueous solution, and the free base crystal form […] aqueous solution. After uniformity, the suspensions were administered intragastrically to rats in triplicate at a dosage of 5 mg/kg (30 mg/kg for suspension) for the free base crystal form I and a dosage of 30 mg/kg (suspension) for the free base crystal form II. The free base crystal form I was dissolved with 20% HP-β-CD aqueous solution to obtain a clear solution, and the clear solution was filtered through a filter membrane. The filtered solution was administered via injection to rats in triplicate.
# [3] = Solubility experiments in different media (thermodynamic solubility); assay type: physicochemical; conditions: thermodynamic from solid
# Source text: The solubility of the free base crystal form I and the free base crystal form II in media such as pH 1.0-8.0 USP buffer, artificial simulated gastric fluid (FaSSGF), fasted-state artificial simulated intestinal fluid (FaSSIF), fed-state artificial simulated intestinal fluid (FeSSIF) and pure water was compared to provide a basis for the evaluation of drugability.
# [4] = Solid stability experiment (related substances by HPLC); assay type: physicochemical
# Experimental: The compound physical and chemical stability at high temperature of 60°C, high humidity of 92.5% RH and both high temperature of 50°C and high humidity of 75% RH of the free base crystal form I and the free base crystal form II were investigated to provide a basis for the storage of the compounds.
# About 2 mg of the free base crystal form I and the free base crystal form II were taken respectively, and changes of related substances in the crystal forms at high temperature of 60°C, high humidity of 92.5% RH, and both high temperature of 50°C and high humidity of 75%RH for 7 days and 14 days were investigated. The changes of related substances were calculated by HPLC and the chromatographic peak area normalization method.
# human OX1R = target: T1, human OX1R (Homo sapiens, UniProt O43613); test: Calcium current (FLIPR) in cells stably expressing OX1 receptor; assay type: cell-based; conditions: CHO-K1/human OX1R cells; agonist OX-A at EC80; FLIPR Tetra
# T1 construct: expressed in transfected cells; host or cells: CHO-K1
# T1 sequence (O43613 1-425): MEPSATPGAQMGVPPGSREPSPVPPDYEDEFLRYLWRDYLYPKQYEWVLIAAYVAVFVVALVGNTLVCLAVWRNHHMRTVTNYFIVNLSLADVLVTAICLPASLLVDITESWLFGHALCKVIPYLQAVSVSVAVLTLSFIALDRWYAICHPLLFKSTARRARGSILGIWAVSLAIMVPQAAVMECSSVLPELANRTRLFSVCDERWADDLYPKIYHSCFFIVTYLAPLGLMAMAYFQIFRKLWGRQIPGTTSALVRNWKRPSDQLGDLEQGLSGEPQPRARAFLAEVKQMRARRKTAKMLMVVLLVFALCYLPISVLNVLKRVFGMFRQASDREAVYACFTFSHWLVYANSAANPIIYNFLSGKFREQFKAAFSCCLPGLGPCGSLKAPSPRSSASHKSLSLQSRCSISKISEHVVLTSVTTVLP
# Experimental: (§1) Determination of the effect of the compounds of the present invention on calcium current in cells stably expressing OX1 and OX2 receptors 1. Experimental objective: The inhibitory effect of the compounds on calcium current activity in CHO-K1/human OX1R and CHO-K1/human OX2R cells was detected. 2. […] 3. […] The IC50 of the positive compounds and test compounds was determined. 4. Experimental data processing method: FLIPR Tetra was used to read and collect the fluorescence signal value (RFU). […] 5.
# in vivo = conditions: male, SD, rat, po, 5 mg/kg
# Experimental: SD rats were used as test animals to study the pharmacokinetic behaviour of the compounds of the present invention in rat (plasma) after oral administration at a dose of 5 mg/kg.
# The example compound of the present invention, made in house.
# Oral administration drug preparation: 20%HP-β-CD in Water
# HP-β-CD powder (20 g) was weighed and dissolved in purified water (100 mL), and the mixture was homogeneously mixed by vortex and subjected to ultrasound treatment to afford a clear solution.
# The example compound was weighed and added to a 20 mL glass bottle, the solution was added and the mixture was subjected to ultrasound treatment for 10 minutes to afford a colourless clear solution with a concentration of 0.5 mg/mL.
# The brain tissues were rinsed with pre-cooled PBS, wiped dry, weighed, and stored at -80°C.
# • 1) Acetonitrile (160 µL) was added to plasma sample (40 µL) for precipitation, and the mixture was mixed and centrifuged at 3500 × g for 5 to 20 minutes. • 2) The treated supernatant solution was taken and subjected to LC/MS/MS to analyse the concentrations of the test compounds. LC/MS/MS analysis instrument: AB Sciex API 4000 Qtrap.
# • Liquid phase conditions: Shimadzu LC-20AD pump • Chromatographic column: Agilent ZORBAX XDB-C18 (50×2.1 mm, 3.5 µm) mobile phase: liquid A: 0.1% aqueous formic acid solution, liquid B: acetonitrile • Flow rate: 0.4 mL/min • Elution time: 0-4.0 min, the eluent is as follows:
# The main pharmacokinetic parameters were calculated using WinNonlin 6.1.
# human OX2R = target: T2, human OX2R (Homo sapiens, UniProt O43614); test: Calcium current (FLIPR) in cells stably expressing OX2 receptor; assay type: cell-based; conditions: for IC50: CHO-K1/human OX2R cells, agonist OX-B at EC80, FLIPR Tetra; for Select fold: OX1R IC50 over OX2R IC50
# T2 construct: expressed in transfected cells; host or cells: CHO-K1
# T2 sequence (O43614 1-444): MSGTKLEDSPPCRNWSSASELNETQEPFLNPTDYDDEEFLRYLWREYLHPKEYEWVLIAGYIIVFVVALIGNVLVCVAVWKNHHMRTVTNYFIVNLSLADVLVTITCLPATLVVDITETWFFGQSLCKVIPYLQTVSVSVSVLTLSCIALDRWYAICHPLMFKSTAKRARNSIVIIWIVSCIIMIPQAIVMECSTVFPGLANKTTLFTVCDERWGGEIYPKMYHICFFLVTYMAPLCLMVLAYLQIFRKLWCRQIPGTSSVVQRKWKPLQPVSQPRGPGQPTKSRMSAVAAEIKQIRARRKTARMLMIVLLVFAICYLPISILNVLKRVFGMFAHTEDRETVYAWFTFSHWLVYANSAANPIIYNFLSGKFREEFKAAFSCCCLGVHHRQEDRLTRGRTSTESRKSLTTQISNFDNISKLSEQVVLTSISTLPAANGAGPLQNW
# Experimental: as §1
# [5] = Room temperature, 92.5%RH, 7 days
# [6] = Room temperature, 92.5%RH, 14 days
structure (smiles),measurement,setting,value
"CC(C)(O)c1nc(N2C[C@H]3CN(C(=O)c4c(F)cccc4-c4ncccn4)C[C@H]3C2)ncc1F [free base crystal form II, ((3aR,6aS)-5-(5-fluoro-4-(2-hydroxyprop-2-yl)pyrimidin-2-yl)hexahydropyrrolo [3,4-c]pyrrol-2(1H)-yl)(2-fluoro-6-(pyrimidin-2-yl)phenyl)methanone]",weight gain after moisture absorption,[1],about 0.2053%
same,Tmax,"[2]; PO, read-out: tmax",2 h
same,AUC(0-inf),[2]; po,13600 ng·h/mL
same,AUC(0-t),[2]; po,11800 ng·h/mL
same,Cmax,[2]; po,2520 ng/mL
same,bioavailability,[2]; po,39.6%
same,half-life,[2]; po,2.4 h
same,MRT inf,"[2]; po, PO, read-out: MRT 0-∞",4.3 h
same,solubility at 2 h,"[3]; FaSSCoF, 37 °C, fassgf or other biorelevant, FaSSCoF, read-out: Solubility of free base crystal form II",51 µg/mL
same,solubility at 2 h,"[3]; FaSSGF (artificial simulated gastric fluid), 37 °C, fassgf or other biorelevant, FaSSGF, read-out: Solubility of free base crystal form II",131 µg/mL
same,solubility at 2 h,"[3]; FaSSIF, 37 °C, fassif, FaSSIF, read-out: Solubility of free base crystal form II",60 µg/mL
same,solubility at 2 h,"[3]; FeSSCoF, 37 °C, fassgf or other biorelevant, FeSSCoF, read-out: Solubility of free base crystal form II",63 µg/mL
same,solubility at 2 h,"[3]; FeSSIF, 37 °C, fessif, FeSSIF, read-out: Solubility of free base crystal form II",100 µg/mL
same,solubility at 2 h,"[3]; USP buffer pH 1.0, 37 °C, pH 1, simulated gastric fluid, pH 1.0, read-out: Solubility of free base crystal form II",599 µg/mL
same,solubility at 2 h,"[3]; USP buffer pH 2.0, 37 °C, pH 2, simulated gastric fluid, pH 2.0, read-out: Solubility of free base crystal form II",89 µg/mL
same,solubility at 2 h,"[3]; USP buffer pH 3.0, 37 °C, pH 3, aqueous buffer, pH 3.0, read-out: Solubility of free base crystal form II",55 µg/mL
same,solubility at 2 h,"[3]; USP buffer pH 4.5, 37 °C, pH 4.5, aqueous buffer, pH 4.5, read-out: Solubility of free base crystal form II",53 µg/mL
same,solubility at 2 h,"[3]; USP buffer pH 6.8, 37 °C, pH 6.8, aqueous buffer, pH 6.8, read-out: Solubility of free base crystal form II",49 µg/mL
same,solubility at 2 h,"[3]; USP buffer, 37 °C, pH 4, aqueous buffer, pH 4.0, read-out: Solubility of free base crystal form II",51 µg/mL
same,solubility at 2 h,"[3]; USP buffer, 37 °C, pH 5, aqueous buffer, pH 5.0, read-out: Solubility of free base crystal form II",50 µg/mL
same,solubility at 2 h,"[3]; USP buffer, 37 °C, pH 6, aqueous buffer, pH 6.0, read-out: Solubility of free base crystal form II",50 µg/mL
same,solubility at 2 h,"[3]; USP buffer, 37 °C, pH 7, aqueous buffer, pH 7.0, read-out: Solubility of free base crystal form II",47 µg/mL
same,solubility at 2 h,"[3]; USP buffer, 37 °C, pH 8, aqueous buffer, pH 8.0, read-out: Solubility of free base crystal form II",47 µg/mL
same,solubility at 2 h,"[3]; water, 37 °C, water, H2O, read-out: Solubility of free base crystal form II",55 µg/mL
same,% Increase in total impurity,"[4]; 50°C, 75%RH, 7 days",<0.10%
same,% Maximum increase in single impurity,"[4]; 50°C, 75%RH, 7 days",<0.10%
same,% Increase in total impurity,"[4]; 50°C, 75%RH, 14 days",<0.10%
same,% Maximum increase in single impurity,"[4]; 50°C, 75%RH, 14 days",<0.10%
same,% Increase in total impurity,"[4]; 60°C, 7 days",<0.10%
same,% Maximum increase in single impurity,"[4]; 60°C, 7 days",<0.10%
same,% Increase in total impurity,"[4]; 60°C, 14 days",<0.10%
same,% Maximum increase in single impurity,"[4]; 60°C, 14 days",<0.10%
same,% Increase in total impurity,[4]; [5],<0.10%
same,% Maximum increase in single impurity,[4]; [5],<0.10%
same,% Increase in total impurity,[4]; [6],<0.11%
same,% Maximum increase in single impurity,[4]; [6],<0.10%
"Cc1nc(N2C[C@H]3CN(C(=O)c4c(F)cccc4-c4ccccn4)C[C@H]3C2)nc(C(C)(C)O)c1F [Compound 12, ((3aR,6aS)-5-(5-fluoro-4-(2-hydroxypropan-2-yl)-6-methylpyrimidin-2-yl)hexahydropyrrolo[3,4-c]pyrrol-2(1H)-yl)(2-fluoro-6-(pyridin-2-yl)phenyl)methanone]",IC50,human OX1R,263 nM
same,AUC(0-inf),in vivo,335 ng·h/mL
same,Cmax,in vivo,420 ng/mL
same,Tmax,in vivo,0.5 h
same,IC50,human OX2R,7.26 nM
same,Select fold,human OX2R,36
"Cc1nc(N2C[C@H]3CN(C(=O)c4ccc(F)cc4-n4nccn4)C[C@H]3C2)nc(C(C)(C)O)c1F [Compound 10, (4-fluoro-2-(2H-1,2,3-triazol-2-yl)phenyl)((cis)-5-(5-fluoro-4-(2-hydroxypropan-2-yl)-6-methylpyrimidin-2-yl)hexahydropyrrolo [3,4-c]pyrrol-2(1H)-yl)methanone]",IC50,human OX1R,1200 nM
same,IC50,human OX2R,25.2 nM
same,Select fold,human OX2R,48
